Assay results taken from patent US20250144047A1, “PHARMACEUTICAL COMPOSITION FOR PREVENTING, AMELIORATING, OR TREATING CANCER CONTAINING 8-PARADOL” (KDBIO CORP., priority 2022, published 2025).

What was measured:
[1] = test system: AGS xenografts; assay: Tumor size in AGS-xenograft mice; assay type: in vivo
Protocol: (§1) Male nude mice (CAnN.Cg-Foxn1-nu, 4 weeks old, 20 g to 22 g) were purchased from OrientBio (Seongnam, Republic of Korea). The mice were placed in a chamber with conditions maintained at 23° C. and 50% humidity with a period of 12 hours of light and 12 hours of darkness. All animal experiments were conducted according to the National Institutes of Health's Laboratory Animal Care and Use Guidelines (NIH Publications No. 8023, revised 1996) and the Kyung Hee University's Animal Care and Use Guidelines ([…]-441, approval data: Sep. 28, 2021). […] The control group was administered with only 0.9% of general saline during this period. Body weights and tumor volumes of the mice were measured daily in all mice during the study period. All mice were euthanized after the end of the experiments. Blood, liver, spleen, kidney, and tumor tissues were extracted and weighed. In order to obtain the protein of tumor tissue, a portion of the tissue was processed with RIPA buffer containing a protease inhibitor cocktail. Then, the expression degree of a specific protein (determined by Western blot) was determined.

[2] = design: species or system mice; conditions: mouse, in vivo
Protocol: as §1, with “determined. […] Fuji Dri-Chem analyzer (3500, Fuji Photo Film Co., Osaka, Japan) was used to measure alanine aminotransferase (ALT), aspartate aminotransferase (AST), total bilirumin (T-Bili), total protein (TP), albumin (Alb), albumin/globulin (A/G) ratio, total cholesterol (T-Chol), total triglyceride (TG), glucose (GLU), and blood urea nitrogen (BUN) values.” for “determined.”

[3] = test system: AGS cells; assay: Hoechst33258 and PI staining; assay type: cell-based, human
Protocol: AGS cells (1×10^5 cells) were seeded and maintained for 24 hours. In order to evaluate the percentage of apoptotic cells, Hoechst33258 or PI (Thermo Fisher Scientific, Rockford, IL, USA) was added to the AGS cells processed with the sample. After 30 minutes, the cells were observed using the fluorescence microscope (Leica DM IRB).

[4] = test system: AGS cells; assay: ATP fluorescence assay in AGS cells; assay type: cell-based, human
Excerpt: The ATP degree of the sample-processed AGS cells were detected according to the manufacturer's instructions by using an ATP fluorescence assay kit (Biovision, Milpitas, CA, USA).

[5] = test system: AGS cells; assay: Western blot analysis of AGS cells; assay type: cell-based, human
Protocol: Mitochondria of AGS cells were extracted using an extraction kit (Abcam, Cambridge, MA, USA). According to the instructions for using the kit, the AGS cells were washed with cold PBS and homogenized in a cold glass vortex mixer. For mitochondrial-rich supernatants, the homogenates were centrifuged at 1000 rpm for 10 minutes at 4° C. For whole protein extraction, AGS cells were processed with samples at various concentrations for 24 hours. The cells were dissolved using Pierce™ RIPA buffer (Thermo Fisher Scientific, Rockford, IL, USA) together with protease inhibitor cocktail (GenDEPOT, TX, USA). The cell-dissolved solution formed in the above manner was centrifuged at 12,000 rpm for 20 minutes. The protein was loaded into a 10% SDS-PAGE gel using a protein gel electrophoresis chamber system and transferred to a PVDF membrane (Thermo Fisher Scientific, Rockford, IL, USA). A PBST solution containing 5% skim milk was used to block the membrane at 25° C. for 1 hour. Then, the membrane was incubated overnight at 4° C. with primary antibodies. Finally, the membrane was incubated with the secondary antibodies at 25° C. for 1 hour, and a protein band was detected using West-Q Pico ECL Solution (GenDEPOT, TX, USA). The results were quantified using ImageJ software.

[6] = test system: AGS cells; assay: Colony formation assay of AGS cells; assay type: cell-based, human; conditions: 5-FU positive control
Protocol: (§2) Live/dead cells were stained using a live/dead cell staining kit (Thermo Fisher Scientific, Rockford, IL, USA). Specifically, apoptosis was induced by processing AGS cells (2×10^5 cells/well) as a sample for 24 hours. After staining the cells for 30 minutes using the staining kit, the cells were observed using a Leica DM IRB fluorescence microscope (Wetzlar, Germany). In addition, for the colony formation assay, AGS cells were cultured at a density of 500 cells/well and then processed with the sample. Then, the cells were stained with 0.5% crystal violet (Sigma-Aldrich, St. Louis, MO, USA) for 15 minutes […], and then the stained colonies were observed and quantified using ImageJ.

[7] = test system: AGS cells; assay: Live/dead cell staining of AGS cells; assay type: cell-based, human; conditions: 24 hours
Protocol: as §2

[8] = 8-paradol-H 8 mg/kg oral 16 days
[9] = AGS cells, compared with control group
[10] = 8-paradol and CQ in combination, compared to 8-paradol solely

CCCCCCCCCC(=O)CCc1ccc(O)c(OC)c1 [Purified Compound 3, 8-paradol]
size and weight of the tumor compared to Con-T [1, 8]: significantly reduced
size, weight, and volume of the tumor compared to the 5-FU group [1, 8]: further reduced
size of the tumor compared to Con-T ([1]; 8-paradol-M 4 mg/kg oral 16 days): significantly reduced
harm to the liver [2]: not harmful to the liver
kidney damage [2]: did not cause kidney damage
number of apoptotic cells (Hoechst and PI staining) ([3]; 8-paradol and CQ together, compared to 8-paradol solely): significantly reduced
fragmentation of nuclei and fluorescence of the condensate (Hoechst staining) ([3]; AGS cells): became stronger in a dose-dependent manner
number of killed cells (PI staining) [3, 9]: increased the number of killed cells
ATP loss induced by 8-paradol ([4]; 8-paradol with CQ (inhibiting mitophagy)): reduced
ATP concentration in AGS cells ([4]; AGS cells): reduced
Bcl-2 expression [5, 10]: significantly increased
expression degree of Bax, Cytochrome c and caspase-3/-9 [5, 10]: significantly decreased
conversion to LC3b and degradation of p62 ([5]; 8-paradol combined with CQ 30 μM, compared to 8-paradol solely): more strongly induces
expression of TOM20 and TIM23 ([5]; 8-paradol in combination with CQ, compared to 8-paradol solely): increased
amount of Bax, Cytochrome C and Cleaved-caspase-3/-9 ([5]; AGS cells): increased
amount of Bcl-2 ([5]; AGS cells): decreased
expression of p62 ([5]; AGS cells): degraded p62 in a dose-dependent manner
protein expression of Pink1 and Parkin ([5]; AGS cells): significantly increased
protein expression of TOM20 and TIM23 [5, 9]: decreased
conversion from LC3a to LC3b ([5]; AGS cells, dose- and time-dependent): promoted
Parkin concentration of the mitochondrial fraction ([5]; AGS cells, mitochondrial fraction): increased
colony formation ability compared with 5-FU-processed AGS cells [6]: significantly inhibited
cytotoxicity on AGS cells by cell morphology and live/dead cell staining [7]: strong cytotoxicity
